According to ChEMBL document CHEMBL1142881, “Structure-activity relationships of 19-norvitamin D analogs having a fluoroethylidene group at the C-2 position” (Bioorg Med Chem, 2007):
Values joined by “and” are separate entries in the source; they are usually repeats but may differ in a detail not shown here. Equal values may be shown once. Values belong to the compound of their own block, whether it stands above or below them.

How the values were obtained:
Vitamin D3 receptor = molecular target: T1, Vitamin D3 receptor (Homo sapiens, UniProt P11473); assay: […] of human VDR induced-transcriptional transactivation of luciferase reporter gene in COS7 cells after 24 hrs; format: cell-based, COS-7
T1 sequence (P11473 whole entry): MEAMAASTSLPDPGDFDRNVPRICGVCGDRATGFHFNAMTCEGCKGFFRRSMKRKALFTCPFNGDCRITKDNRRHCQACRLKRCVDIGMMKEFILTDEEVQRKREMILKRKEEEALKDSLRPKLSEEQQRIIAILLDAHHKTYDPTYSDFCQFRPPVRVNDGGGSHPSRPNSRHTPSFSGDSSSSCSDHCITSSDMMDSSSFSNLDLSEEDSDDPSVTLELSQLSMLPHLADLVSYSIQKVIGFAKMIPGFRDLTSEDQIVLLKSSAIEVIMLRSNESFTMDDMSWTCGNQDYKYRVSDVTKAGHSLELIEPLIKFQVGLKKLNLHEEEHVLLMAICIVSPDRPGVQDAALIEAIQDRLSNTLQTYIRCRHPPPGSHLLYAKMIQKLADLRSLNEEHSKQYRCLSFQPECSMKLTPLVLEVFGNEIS

[1] = molecular target: T2, Vitamin D3 receptor (Rattus norvegicus) (UniProt P13053); assay: Displacement of [3H]1-alpha,25-(OH)2D3 from rat recombinant VDR ligand-binding domain expressed in Escherichia coli BL21 realtive to 1-alpha,25-(OH)2D3
T2 sequence (whole entry): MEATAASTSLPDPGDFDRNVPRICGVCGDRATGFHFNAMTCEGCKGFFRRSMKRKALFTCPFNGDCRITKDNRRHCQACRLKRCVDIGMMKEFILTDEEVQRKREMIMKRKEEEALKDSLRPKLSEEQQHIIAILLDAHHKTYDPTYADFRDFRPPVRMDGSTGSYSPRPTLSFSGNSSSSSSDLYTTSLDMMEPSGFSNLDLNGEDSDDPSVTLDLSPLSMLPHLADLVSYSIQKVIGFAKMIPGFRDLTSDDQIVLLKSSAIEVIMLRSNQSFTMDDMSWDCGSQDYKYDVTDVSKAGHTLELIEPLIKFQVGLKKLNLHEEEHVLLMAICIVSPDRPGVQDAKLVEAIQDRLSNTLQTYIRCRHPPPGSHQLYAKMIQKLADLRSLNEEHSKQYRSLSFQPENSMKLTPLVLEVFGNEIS

[2] = molecular target: T3, Vitamin D3 receptor (Homo sapiens) (UniProt P11473); assay: Displacement of [3H]1-alpha,25-(OH)2D3 from thymus VDR realtive to 1-alpha,25-(OH)2D3
T3 sequence (whole entry): T1 sequence (P11473 whole entry)

[3] = molecular target: T3, Vitamin D3 receptor (Homo sapiens); assay: […] of human VDR induced-transcriptional transactivation of luciferase reporter gene in COS7 cells after 24 hrs relative to 1-alpha,25-(OH)2D3; format: cell-based; settings: COS-7

SMILES: C[C@@H](CCCC(C)(C)O)C1CCC2/C(=C/C=C3C[C@@H](O)C(=CCF)[C@H](O)C3)CCCC21C (some centres undefined) [listing 1 of 3 here]
EC50 (Vitamin D3 receptor): 1.1 nM

SMILES: C[C@H](CCCC(C)(C)O)C1CCC2/C(=C/C=C3C[C@@H](O)C(=CCF)[C@H](O)C3)CCCC21C (some centres undefined) [listing 1 of 3 here]
Activity [1]: 0.77% and 0.05%

SMILES: C[C@@H](CCCC(C)(C)O)C1CCC2/C(=C/C=C3C[C@@H](O)C(=CCO)[C@H](O)C3)CCCC21C (some centres undefined)
Activity [2]: 0.02% and 1.6%
Activity [3]: 4.2 and 12.5

SMILES: C[C@H](CCCC(C)(C)O)C1CCC2/C(=C/C=C3C[C@@H](O)C(=CCO)[C@H](O)C3)CCCC21C (some centres undefined)
Activity [2]: 2% and 0.007%

The remaining lines, values ahead:

EC50 (Vitamin D3 receptor): 2.2 nM
SMILES: C[C@H](CCCC(C)(C)O)C1CCC2/C(=C/C=C3C[C@@H](O)C(=CCF)[C@H](O)C3)CCCC21C (some centres undefined) [listing 2 of 3 here]

EC50 (Vitamin D3 receptor): 0.5 nM
SMILES: C[C@H](CCCC(C)(C)O)C1CCC2/C(=C/C=C3C[C@@H](O)C(=CCF)[C@H](O)C3)CCCC21C (some centres undefined) [listing 3 of 3 here]

Activity [1]: 0.07% and 1.08%
SMILES: C[C@@H](CCCC(C)(C)O)C1CCC2/C(=C/C=C3C[C@@H](O)C(=CCF)[C@H](O)C3)CCCC21C (some centres undefined) [listing 2 of 3 here]

EC50 (Vitamin D3 receptor): 0.07 nM
SMILES: C[C@@H](CCCC(C)(C)O)C1CCC2/C(=C/C=C3C[C@@H](O)C(=CCF)[C@H](O)C3)CCCC21C (some centres undefined) [listing 3 of 3 here]
